Laboratory results as given in ChEMBL document CHEMBL1152560, “Substituted 2-arylbenzothiazoles as kinase inhibitors: hit-to-lead optimization” (Bioorg Med Chem, 2009).

Columns and labels:
[1] = target: Serine/threonine-protein kinase 24 (Homo sapiens) (UniProt Q9Y6E0); assay: Residual activity of MST3 at 1 uM by microplate scintillation counting
[2] = target: T1, Aurora kinase C (Homo sapiens) (UniProt Q9UQB9); assay: Residual activity of Aurora-C at 10 uM by microplate scintillation counting
T1 sequence (whole entry): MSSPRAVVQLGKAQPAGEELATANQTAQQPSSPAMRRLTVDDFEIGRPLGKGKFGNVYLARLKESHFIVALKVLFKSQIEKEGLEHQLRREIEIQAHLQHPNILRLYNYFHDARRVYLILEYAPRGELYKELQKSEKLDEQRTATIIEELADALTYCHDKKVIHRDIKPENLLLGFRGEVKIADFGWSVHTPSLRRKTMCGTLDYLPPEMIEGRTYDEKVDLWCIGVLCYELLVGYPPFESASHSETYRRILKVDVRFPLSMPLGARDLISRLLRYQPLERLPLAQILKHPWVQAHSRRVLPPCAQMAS

[3] = target: Ephrin type-A receptor 4 (Homo sapiens) (UniProt P54764); assay: Residual activity of EPHA4 at 0.1 uM by microplate scintillation counting
Sequence of Ephrin type-A receptor 4 (Homo sapiens) (P54764 whole entry): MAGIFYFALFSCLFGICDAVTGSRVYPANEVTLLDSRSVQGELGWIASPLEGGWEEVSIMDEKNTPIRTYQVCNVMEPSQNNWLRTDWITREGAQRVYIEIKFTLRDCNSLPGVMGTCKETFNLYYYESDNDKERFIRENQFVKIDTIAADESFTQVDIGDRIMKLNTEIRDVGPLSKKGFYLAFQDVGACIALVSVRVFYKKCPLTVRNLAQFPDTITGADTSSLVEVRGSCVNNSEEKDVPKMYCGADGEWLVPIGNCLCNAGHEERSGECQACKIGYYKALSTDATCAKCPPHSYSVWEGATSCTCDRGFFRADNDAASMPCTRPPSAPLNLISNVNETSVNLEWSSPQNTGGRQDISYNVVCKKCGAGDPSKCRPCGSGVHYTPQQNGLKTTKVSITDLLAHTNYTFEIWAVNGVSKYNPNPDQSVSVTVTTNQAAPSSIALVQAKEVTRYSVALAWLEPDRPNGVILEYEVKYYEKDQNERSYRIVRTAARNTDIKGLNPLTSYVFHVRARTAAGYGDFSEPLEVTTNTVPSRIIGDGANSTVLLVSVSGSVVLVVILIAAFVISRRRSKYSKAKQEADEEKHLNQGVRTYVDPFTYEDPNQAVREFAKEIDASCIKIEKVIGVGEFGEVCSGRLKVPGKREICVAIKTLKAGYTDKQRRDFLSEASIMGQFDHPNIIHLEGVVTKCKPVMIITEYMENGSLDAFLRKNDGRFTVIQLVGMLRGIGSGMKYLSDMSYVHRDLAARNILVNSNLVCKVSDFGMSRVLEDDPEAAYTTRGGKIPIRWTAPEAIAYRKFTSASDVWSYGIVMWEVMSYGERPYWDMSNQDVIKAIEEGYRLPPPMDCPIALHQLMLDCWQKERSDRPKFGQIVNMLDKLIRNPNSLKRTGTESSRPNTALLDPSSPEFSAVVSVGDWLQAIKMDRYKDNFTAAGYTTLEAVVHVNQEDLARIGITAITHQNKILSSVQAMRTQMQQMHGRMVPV

[4] = target: Protein kinase C beta type (Homo sapiens) (UniProt P05771); assay: Residual activity of PKCbeta2 at 0.1 uM by microplate scintillation counting
[5] = target: T2, Serine/threonine-protein kinase 4 (Homo sapiens) (UniProt Q13043); assay: Residual activity of MST1 at 10 uM by microplate scintillation counting
T2 sequence (whole entry): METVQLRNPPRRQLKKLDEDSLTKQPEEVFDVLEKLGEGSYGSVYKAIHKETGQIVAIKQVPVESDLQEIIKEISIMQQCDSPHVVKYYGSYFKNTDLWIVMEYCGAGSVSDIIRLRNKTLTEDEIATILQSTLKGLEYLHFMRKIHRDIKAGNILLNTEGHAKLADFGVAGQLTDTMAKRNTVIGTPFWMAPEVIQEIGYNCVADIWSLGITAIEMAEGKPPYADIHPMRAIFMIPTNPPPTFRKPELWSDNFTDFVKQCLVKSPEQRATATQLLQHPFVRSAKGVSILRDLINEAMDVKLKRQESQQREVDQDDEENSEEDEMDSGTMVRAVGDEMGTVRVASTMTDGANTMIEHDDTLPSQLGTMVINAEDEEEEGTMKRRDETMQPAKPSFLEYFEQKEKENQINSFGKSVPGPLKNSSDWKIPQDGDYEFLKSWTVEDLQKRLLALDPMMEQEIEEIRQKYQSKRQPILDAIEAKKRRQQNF

[6] = target: T3, Testis-specific serine/threonine-protein kinase 1 (Homo sapiens) (UniProt Q9BXA7); assay: Residual activity of TSSK1 at 10 uM by microplate scintillation counting
T3 sequence (whole entry): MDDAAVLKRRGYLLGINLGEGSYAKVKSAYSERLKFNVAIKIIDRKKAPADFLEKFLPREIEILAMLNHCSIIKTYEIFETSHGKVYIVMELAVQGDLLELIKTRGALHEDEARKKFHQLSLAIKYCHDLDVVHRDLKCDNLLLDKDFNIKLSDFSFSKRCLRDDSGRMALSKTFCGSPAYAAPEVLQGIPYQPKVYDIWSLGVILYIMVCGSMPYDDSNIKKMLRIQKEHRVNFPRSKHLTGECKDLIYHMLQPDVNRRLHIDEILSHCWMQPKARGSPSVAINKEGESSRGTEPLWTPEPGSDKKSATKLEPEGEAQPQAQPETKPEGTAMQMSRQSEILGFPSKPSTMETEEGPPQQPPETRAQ

[7] = target: Homeodomain-interacting protein kinase 1 (Homo sapiens) (UniProt Q86Z02); assay: Residual activity of HIPK1 at 10 uM by microplate scintillation counting
Sequence of Homeodomain-interacting protein kinase 1 (Homo sapiens) (Q86Z02 whole entry, looked up, canonical isoform): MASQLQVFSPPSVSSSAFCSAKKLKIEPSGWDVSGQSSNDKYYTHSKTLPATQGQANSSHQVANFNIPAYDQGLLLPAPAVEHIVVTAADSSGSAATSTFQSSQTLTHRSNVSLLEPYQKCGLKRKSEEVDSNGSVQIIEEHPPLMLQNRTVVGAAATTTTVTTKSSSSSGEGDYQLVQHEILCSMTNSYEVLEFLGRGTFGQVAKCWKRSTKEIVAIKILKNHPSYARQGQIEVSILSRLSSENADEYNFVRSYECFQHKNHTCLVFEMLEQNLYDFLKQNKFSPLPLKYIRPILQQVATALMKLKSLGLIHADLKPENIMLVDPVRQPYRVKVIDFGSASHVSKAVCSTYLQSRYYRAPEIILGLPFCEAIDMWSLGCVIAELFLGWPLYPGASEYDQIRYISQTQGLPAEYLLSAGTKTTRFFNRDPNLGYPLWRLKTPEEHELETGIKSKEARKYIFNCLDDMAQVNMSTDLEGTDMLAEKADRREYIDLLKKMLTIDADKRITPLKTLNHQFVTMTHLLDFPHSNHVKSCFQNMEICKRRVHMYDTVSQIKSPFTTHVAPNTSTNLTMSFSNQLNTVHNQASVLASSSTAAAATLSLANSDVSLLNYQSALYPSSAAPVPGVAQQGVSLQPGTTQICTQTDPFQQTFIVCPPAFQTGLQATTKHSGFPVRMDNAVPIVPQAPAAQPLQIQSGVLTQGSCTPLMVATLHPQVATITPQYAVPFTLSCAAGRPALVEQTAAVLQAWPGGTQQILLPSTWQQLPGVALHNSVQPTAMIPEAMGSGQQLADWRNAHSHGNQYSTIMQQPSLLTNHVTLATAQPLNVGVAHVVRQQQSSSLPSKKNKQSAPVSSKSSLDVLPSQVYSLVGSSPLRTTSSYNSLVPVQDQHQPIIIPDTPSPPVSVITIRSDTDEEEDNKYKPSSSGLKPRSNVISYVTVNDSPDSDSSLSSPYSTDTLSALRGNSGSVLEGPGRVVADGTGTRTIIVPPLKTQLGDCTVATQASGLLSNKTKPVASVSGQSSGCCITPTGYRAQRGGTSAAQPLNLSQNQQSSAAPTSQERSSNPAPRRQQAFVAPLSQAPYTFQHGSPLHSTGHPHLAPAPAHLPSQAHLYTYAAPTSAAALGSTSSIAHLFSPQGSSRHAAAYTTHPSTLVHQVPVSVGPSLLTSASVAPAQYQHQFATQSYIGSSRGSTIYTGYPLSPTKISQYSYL

[8] = target: Casein kinase I isoform delta (Homo sapiens) (UniProt P48730); assay: Residual activity of CK1delta at 1 uM by microplate scintillation counting
[9] = target: Protein-tyrosine kinase 6 (Homo sapiens) (UniProt Q13882); assay: Residual activity of BRK at 0.1 uM by microplate scintillation counting
[10] = target: Protein kinase C alpha type (Homo sapiens) (UniProt P17252); assay: Residual activity of PKCalpha at 1 uM by microplate scintillation counting
[11] = target: Tyrosine-protein kinase Blk (Homo sapiens) (UniProt P51451); assay: Residual activity of BLK at 0.1 uM by microplate scintillation counting
[12] = target: NT-3 growth factor receptor (Homo sapiens) (UniProt Q16288); assay: Residual activity of TRK-C at 0.1 uM by microplate scintillation counting
[13] = target: RAC-gamma serine/threonine-protein kinase (Homo sapiens) (UniProt Q9Y243); assay: Residual activity of AKT3 at 10 uM by microplate scintillation counting
Sequence of RAC-gamma serine/threonine-protein kinase (Homo sapiens) (Q9Y243 whole entry): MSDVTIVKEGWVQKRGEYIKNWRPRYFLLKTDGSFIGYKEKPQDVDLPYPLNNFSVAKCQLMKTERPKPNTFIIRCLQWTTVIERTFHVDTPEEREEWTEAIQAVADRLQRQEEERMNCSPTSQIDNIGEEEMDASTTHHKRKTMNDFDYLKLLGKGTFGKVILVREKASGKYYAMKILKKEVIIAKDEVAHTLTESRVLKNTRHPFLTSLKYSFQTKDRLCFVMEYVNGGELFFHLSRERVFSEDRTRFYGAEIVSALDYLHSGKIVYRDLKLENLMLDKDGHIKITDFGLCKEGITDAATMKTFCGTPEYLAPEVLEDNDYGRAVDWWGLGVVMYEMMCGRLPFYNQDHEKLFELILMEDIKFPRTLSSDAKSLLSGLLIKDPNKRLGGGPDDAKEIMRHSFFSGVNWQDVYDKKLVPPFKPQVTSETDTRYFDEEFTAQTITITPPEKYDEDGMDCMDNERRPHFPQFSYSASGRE

[14] = target: Cyclin-dependent kinase 5/CDK5 activator 1 (Homo sapiens) (UniProt Q00535+Q15078); assay: Residual activity of CDK5/p35NCK at 10 uM by microplate scintillation counting; format: protein-complex assay
[15] = target: High affinity nerve growth factor receptor (Homo sapiens) (UniProt P04629); assay: Residual activity of TRK-A at 10 uM by microplate scintillation counting
Sequence of High affinity nerve growth factor receptor (Homo sapiens) (P04629 33-796 limits assumed): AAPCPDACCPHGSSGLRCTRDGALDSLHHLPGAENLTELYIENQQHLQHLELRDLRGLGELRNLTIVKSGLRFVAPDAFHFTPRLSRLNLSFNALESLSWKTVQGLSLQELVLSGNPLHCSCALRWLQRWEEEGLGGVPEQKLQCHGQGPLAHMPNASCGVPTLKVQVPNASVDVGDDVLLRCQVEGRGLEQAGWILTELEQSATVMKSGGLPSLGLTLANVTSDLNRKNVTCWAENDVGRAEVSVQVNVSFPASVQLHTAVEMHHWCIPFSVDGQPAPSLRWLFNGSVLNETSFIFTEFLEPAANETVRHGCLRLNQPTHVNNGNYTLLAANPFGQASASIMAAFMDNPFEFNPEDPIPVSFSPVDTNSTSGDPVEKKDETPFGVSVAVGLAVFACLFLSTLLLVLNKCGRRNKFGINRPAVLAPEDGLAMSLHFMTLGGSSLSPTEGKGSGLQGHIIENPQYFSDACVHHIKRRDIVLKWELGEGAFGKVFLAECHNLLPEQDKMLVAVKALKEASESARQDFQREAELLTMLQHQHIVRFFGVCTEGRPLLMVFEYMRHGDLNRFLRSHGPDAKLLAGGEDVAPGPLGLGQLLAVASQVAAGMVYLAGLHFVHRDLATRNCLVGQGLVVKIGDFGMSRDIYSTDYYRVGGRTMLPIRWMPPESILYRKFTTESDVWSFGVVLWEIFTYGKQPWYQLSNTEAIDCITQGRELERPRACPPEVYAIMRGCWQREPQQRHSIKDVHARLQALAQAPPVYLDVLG

[16] = target: Mitogen-activated protein kinase kinase kinase 8 (Homo sapiens) (UniProt P41279); assay: Residual activity of COT at 1 uM by microplate scintillation counting
Sequence of Mitogen-activated protein kinase kinase kinase 8 (Homo sapiens) (P41279 whole entry): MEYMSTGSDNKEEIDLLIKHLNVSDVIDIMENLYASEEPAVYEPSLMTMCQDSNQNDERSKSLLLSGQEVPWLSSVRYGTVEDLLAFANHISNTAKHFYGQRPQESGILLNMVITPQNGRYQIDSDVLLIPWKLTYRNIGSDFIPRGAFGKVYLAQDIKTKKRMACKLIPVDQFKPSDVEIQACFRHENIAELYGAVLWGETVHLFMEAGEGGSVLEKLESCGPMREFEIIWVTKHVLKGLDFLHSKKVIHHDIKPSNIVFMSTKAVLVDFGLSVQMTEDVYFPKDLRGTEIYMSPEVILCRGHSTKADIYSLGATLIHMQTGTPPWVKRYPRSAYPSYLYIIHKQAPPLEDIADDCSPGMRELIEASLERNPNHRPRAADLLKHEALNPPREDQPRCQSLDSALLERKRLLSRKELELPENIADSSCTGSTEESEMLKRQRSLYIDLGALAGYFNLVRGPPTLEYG

[17] = target: Casein kinase II subunit alpha' (Homo sapiens) (UniProt P19784); assay: Residual activity of CK2alpha2 at 1 uM by microplate scintillation counting
[18] = target: T3, Testis-specific serine/threonine-protein kinase 1 (Homo sapiens); assay: Residual activity of TSSK1 at 0.1 uM by microplate scintillation counting

Sequence of Serine/threonine-protein kinase 24 (Homo sapiens) (Q9Y6E0 whole entry, looked up): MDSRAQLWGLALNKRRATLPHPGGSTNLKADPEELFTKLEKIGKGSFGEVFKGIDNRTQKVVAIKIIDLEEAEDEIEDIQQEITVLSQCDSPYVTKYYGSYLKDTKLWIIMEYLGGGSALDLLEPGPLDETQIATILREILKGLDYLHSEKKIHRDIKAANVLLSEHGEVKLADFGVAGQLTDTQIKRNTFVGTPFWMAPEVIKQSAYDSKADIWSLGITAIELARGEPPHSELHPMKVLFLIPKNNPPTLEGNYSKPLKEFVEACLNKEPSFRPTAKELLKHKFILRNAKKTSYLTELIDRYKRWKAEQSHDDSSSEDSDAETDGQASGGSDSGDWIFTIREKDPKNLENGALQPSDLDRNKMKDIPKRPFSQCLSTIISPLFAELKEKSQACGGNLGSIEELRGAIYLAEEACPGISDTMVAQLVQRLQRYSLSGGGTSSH

residual activity [1] | residual activity [2] | residual activity [3] | residual activity [4] | residual activity [5] | residual activity [6] | residual activity [7] | residual activity [8] | residual activity [9] | residual activity [10] | residual activity [11] | residual activity [12] | residual activity [13] | residual activity [14] | residual activity [15] | residual activity [16] | residual activity [17] | residual activity [18] | Structure (SMILES)
113% | 1% | 93% | 99% | 30% | 322% | 103% | 100% | 57% | 128% | 97% | 109% | 79% | 98% | 55% | 73% | 88% | 49% | COc1cc2c(Oc3ccc(-c4nc5ccccc5s4)cc3)ncnc2cc1OCCCN1CCCC1
118% | 0% | 103% | 101% | 23% | 406% | 132% | 96% | 65% | 99% | 90% | 97% | 112% | 96% | 81% | -18% | 96% | 58% | COc1cc2c(Oc3ccc(-c4nc5ccccc5s4)cc3)ncnc2cc1OCCCN1CCN(C)CC1
122% | 2% | 93% | 87% | 26% | 397% | 142% | 102% | 35% | 98% | 89% | 110% | 113% | 86% | 34% | 77% | 89% | 65% | COc1cc2c(Oc3ccc(-c4nc5ccccc5s4)cc3F)ncnc2cc1OCCCN1CCN(C)CC1
